# Experimental data: patent US11000033B2, “Ketone or oxime compound, and herbicide” (NISSAN CHEMICAL CORPORATION, priority 2014, dated 2021)
# Experiments:
# Format in all cases: in vivo
# [1] = system: wheat; assay: Test Example 5: effect on crop by foliage application, plastic box (symbol e); conditions: 320 g/ha, 3 weeks after application
# Method in brief: (§1)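 Seeds were sown in spots in sterilized diluvial soil held in a plastic box 21 cm × 13 cm × 7 cm deep, covered with about 1.5 cm of soil, and grown in a greenhouse at 25° C. to 30° C.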
# [2] = system: rapeseed; assay: Test Example 5: effect on crop by foliage application, plastic box (symbol g); conditions: 320 g/ha, 3 weeks after application
# Method in brief: as §1
# [3] = system: Avena fatua; assay: Test Example 5: herbicidal effect by foliage application, plastic box (symbol I); conditions: 320 g/ha, 3 weeks after application
# Method in brief: (§2)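 Effect is rated 3 weeks after a foliar spray of water-diluted emulsion concentrate at a predetermined herbicide amount. Plants had grown 14 days in a 25° C. to 30° C. greenhouse from seed in sterilized diluvial soil.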
# [4] = system: Stellaria media; assay: Test Example 5: herbicidal effect by foliage application, plastic box (symbol P); conditions: 320 g/ha, 3 weeks after application
# Method in brief: as §2
# [5] = system: Avena fatua; assay: Test Example 4: herbicidal effect by soil treatment (symbol I)
# Method in brief: (§3)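 Seeds were sown in sterilized diluvial soil, covered with about 1.5 cm of soil, and the soil surface was sprayed with a water-diluted emulsion of the compound at a predetermined rate. Plants grew in a greenhouse at 25° C. to 30° C.; effects were scored visually 3 weeks after application.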
# [6] = system: Echinochloa crus-galli var. crus-galli; assay: Test Example 4: herbicidal effect by soil treatment (symbol H)
# Method in brief: as §3
# [7] = system: directly sowed rice plant; assay: Test Example 3: effect on crop by foliage application, Wagner pot (symbol b); conditions: application herbicide amount 320 g/ha; for b (directly sowed rice plant) effect on crop grade: Table 24
# Method in brief: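 Plants are raised from seed in flooded paddy conditions: water stands 0.1–0.5 cm over alluvial soil, and the pot is kept in a greenhouse at 25–30 °C. Species sown are barnyardgrass (E. crus-galli var. crus-galli), Leptochloa chinensis, Cyperus difformis and rice.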
# [8] = system: Veronica persica; assay: Test Example 5: herbicidal effect by foliage application, plastic box (symbol R); conditions: 320 g/ha, 3 weeks after application
# Method in brief: as §2
# [9] = system: Digitaria ciliaris; assay: Test Example 5: herbicidal effect by foliage application, plastic box (symbol F); conditions: 320 g/ha, 3 weeks after application
# Method in brief: as §2
# [10] = system: Chenopodium album; assay: Test Example 4: herbicidal effect by soil treatment (symbol O)
# Method in brief: as §3
# [11] = system: rapeseed; assay: Test Example 4: effect on crop by soil treatment (symbol g); conditions: for g: rapeseed, effect grade on crop: 320 g/ha
# Method in brief: (§4)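 Steps: fill box with sterilized diluvial soil; sow seed spot-like; cover with ~1.5 cm soil; grow in greenhouse (25° C. to 30° C.).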
# [12] = system: Lolium multiflorum Lam.; assay: Test Example 4: herbicidal effect by soil treatment (symbol K)
# Method in brief: as §3
# [13] = system: rice; assay: Test Example 4: effect on crop by soil treatment (symbol b); conditions: for b: directly sowed rice plant, effect grade on crop: 320 g/ha
# Method in brief: as §4
# [14] = system: Scirpus juncoides; assay: Test Example 1: herbicidal activity, application before weed generation in submerged conditions (symbol B); conditions: application herbicide amount 320 g/ha
# Method in brief: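 Ratings (5: ≥90%, near complete withering; 4: 70–<90%; 3: 40–<70%; 2: 20–<40%; 1: 5–<20%; 0: ≤5%) were assigned 3 weeks after the diluted emulsion was applied to the water surface of freshly sown, submerged pots.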
# [15] = system: Digitaria ciliaris; assay: Test Example 4: herbicidal effect by soil treatment (symbol F)
# Method in brief: as §3
# [16] = system: Chenopodium album; assay: Test Example 5: herbicidal effect by foliage application, plastic box (symbol O); conditions: 320 g/ha, 3 weeks after application
# Method in brief: as §2
# [17] = system: corn; assay: Test Example 5: effect on crop by foliage application, plastic box (symbol c); conditions: 320 g/ha, 3 weeks after application
# Method in brief: as §1
# [18] = application herbicide amount 320 g/ha
SMILES,"e: wheat, effect on crop (criteria 0-5) [1]","g: rapeseed, effect on crop (criteria 0-5) [2]","I: Avena fatua, herbicidal effect (criteria 0-5) [3]","P: Stellaria media, herbicidal effect (criteria 0-5) [4]","I: Avena fatua, herbicidal effect grade ([5]; 320 g/ha)","H: Echinochloa crus-galli var. crus-galli, herbicidal effect grade ([6]; 320 g/ha)","effect on crop b (directly sowed rice plant), grade 0-5 [7]","R: Veronica persica, herbicidal effect (criteria 0-5) [8]","F: Digitaria ciliaris, herbicidal effect (criteria 0-5) [9]","O: Chenopodium album, herbicidal effect grade ([10]; 320 g/ha)","e: wheat, effect on crop grade [1]","g: rapeseed, effect on crop grade [2]","I: Avena fatua, herbicidal effect grade [3]","P: Stellaria media, herbicidal effect grade [4]",b (directly sowed rice plant) effect on crop grade [7],"R: Veronica persica, herbicidal effect grade [8]","F: Digitaria ciliaris, herbicidal effect grade [9]",B (Scirpus juncoides) herbicidal effect grade [14],"O: Chenopodium album, herbicidal effect grade [16]","c: corn, effect on crop grade [17]",also measured
COc1ccc(CON=C(C)CC2CC(O)=C(c3c(C)cc(C)cc3C)C2=O)cc1 (stereo not shown) [1-112],5 (Herbicidal ratio of 90% or more (almost completely withered)),4 (Herbicidal ratio of 70% or higher and lower than 90%),5 (Herbicidal ratio of 90% or more (almost completely withered)),1 (Herbicidal ratio of 5% or higher and lower than 20%),3 (Herbicidal ratio of 40% or higher and lower than 70%),4 (Herbicidal ratio of 70% or higher and lower than 90%),5 (Herbicidal ratio of 90% or more (almost completely withered)),3 (Herbicidal ratio of 40% or higher and lower than 70%),5 (Herbicidal ratio of 90% or more (almost completely withered)),0 (Herbicidal ratio of 5% or lower (almost no effect)),,,,,,,,,,,"g: rapeseed, effect grade on crop [11]: 0 (Herbicidal ratio of 5% or lower (almost no effect)); K: Lolium multiflorum Lam., herbicidal effect grade ([12]; 320 g/ha): 5 (Herbicidal ratio of 90% or more (almost completely withered)); b: directly sowed rice plant, effect grade on crop [13]: 5 (Herbicidal ratio of 90% or more (almost completely withered)); Herbicidal effect grade, B: Scirpus juncoides [14]: 5 (Herbicidal ratio of 90% or more (almost completely withered)); F: Digitaria ciliaris, herbicidal effect grade ([15]; 320 g/ha): 4 (Herbicidal ratio of 70% or higher and lower than 90%); O: Chenopodium album, herbicidal effect (criteria 0-5) [16]: 3 (Herbicidal ratio of 40% or higher and lower than 70%); c: corn, effect on crop (criteria 0-5) [17]: 4 (Herbicidal ratio of 70% or higher and lower than 90%)"
CON=C(C)CON=C(C)CC1CC(O)=C(c2c(C)cc(C)cc2C)C1=O (stereo not shown) [1-105],5 (Herbicidal ratio of 90% or more (almost completely withered)),4 (Herbicidal ratio of 70% or higher and lower than 90%),5 (Herbicidal ratio of 90% or more (almost completely withered)),1 (Herbicidal ratio of 5% or higher and lower than 20%),1 (Herbicidal ratio of 5% or higher and lower than 20%),5 (Herbicidal ratio of 90% or more (almost completely withered)),5 (Herbicidal ratio of 90% or more (almost completely withered)),3 (Herbicidal ratio of 40% or higher and lower than 70%),5 (Herbicidal ratio of 90% or more (almost completely withered)),0 (Herbicidal ratio of 5% or lower (almost no effect)),,,,,,,,,,,"g: rapeseed, effect grade on crop [11]: 3 (Herbicidal ratio of 40% or higher and lower than 70%); K: Lolium multiflorum Lam., herbicidal effect grade ([12]; 320 g/ha): 5 (Herbicidal ratio of 90% or more (almost completely withered)); b: directly sowed rice plant, effect grade on crop [13]: 5 (Herbicidal ratio of 90% or more (almost completely withered)); Herbicidal effect grade, B: Scirpus juncoides [14]: 5 (Herbicidal ratio of 90% or more (almost completely withered)); F: Digitaria ciliaris, herbicidal effect grade ([15]; 320 g/ha): 5 (Herbicidal ratio of 90% or more (almost completely withered)); O: Chenopodium album, herbicidal effect (criteria 0-5) [16]: 2 (Herbicidal ratio of 20% or higher and lower than 40%); c: corn, effect on crop (criteria 0-5) [17]: 4 (Herbicidal ratio of 70% or higher and lower than 90%)"
COCCON=C(CC1CC(O)=C(c2c(C)cc(-n3cc(Cl)cn3)cc2C)C1=O)C(C)C (stereo not shown) [9-022],,,,,,,,,,,0 (Herbicidal ratio of 5% or lower (almost no effect)),0 (Herbicidal ratio of 5% or lower (almost no effect)),0 (Herbicidal ratio of 5% or lower (almost no effect)),0 (Herbicidal ratio of 5% or lower (almost no effect)),5 (Herbicidal ratio of 90% or more (almost completely withered)),0 (Herbicidal ratio of 5% or lower (almost no effect)),5 (Herbicidal ratio of 90% or more (almost completely withered)),3 (Herbicidal ratio of 40% or higher and lower than 70%),0 (Herbicidal ratio of 5% or lower (almost no effect)),2 (Herbicidal ratio of 20% or higher and lower than 40%),"Herbicidal effect grade, I: Avena fatua [5, 18]: 0 (Herbicidal ratio of 5% or lower (almost no effect)); Herbicidal effect grade, H: Echinochloa crus-galli var. crus-galli [6, 18]: 5 (Herbicidal ratio of 90% or more (almost completely withered)); Herbicidal effect grade, O: Chenopodium album [10, 18]: 0 (Herbicidal ratio of 5% or lower (almost no effect)); Effect on crop grade, g: rapeseed [11, 18]: 0 (Herbicidal ratio of 5% or lower (almost no effect)); Herbicidal effect grade, K: Lolium multiflorum Lam. [12, 18]: 0 (Herbicidal ratio of 5% or lower (almost no effect)); Effect on crop grade, b: directly sowed rice plant [13, 18]: 4 (Herbicidal ratio of 70% or higher and lower than 90%); Herbicidal effect grade, F: Digitaria ciliaris [15, 18]: 5 (Herbicidal ratio of 90% or more (almost completely withered))"
CCC(=O)CC1CC(O)=C(c2c(C)cc(Br)cc2OC)C1=O (racemic) [14-002],,,,,,,,,,,3 (Herbicidal ratio of 40% or higher and lower than 70%),4 (Herbicidal ratio of 70% or higher and lower than 90%),5 (Herbicidal ratio of 90% or more (almost completely withered)),0 (Herbicidal ratio of 5% or lower (almost no effect)),5 (Herbicidal ratio of 90% or more (almost completely withered)),0 (Herbicidal ratio of 5% or lower (almost no effect)),5 (Herbicidal ratio of 90% or more (almost completely withered)),1 (Herbicidal ratio of 5% or higher and lower than 20%),0 (Herbicidal ratio of 5% or lower (almost no effect)),5 (Herbicidal ratio of 90% or more (almost completely withered)),"I: Avena fatua, herbicidal effect grade [5, 18]: 0 (Herbicidal ratio of 5% or lower (almost no effect)); H: Echinochloa crus-galli var. crus-galli, herbicidal effect grade [6, 18]: 5 (Herbicidal ratio of 90% or more (almost completely withered)); O: Chenopodium album, herbicidal effect grade [10, 18]: 0 (Herbicidal ratio of 5% or lower (almost no effect)); g: rapeseed, effect on crop grade [11, 18]: 0 (Herbicidal ratio of 5% or lower (almost no effect)); K: Lolium multiflorum Lam., herbicidal effect grade [12, 18]: 5 (Herbicidal ratio of 90% or more (almost completely withered)); b: directly sowed rice plant, effect on crop grade [13, 18]: 5 (Herbicidal ratio of 90% or more (almost completely withered)); F: Digitaria ciliaris, herbicidal effect grade [15, 18]: 5 (Herbicidal ratio of 90% or more (almost completely withered))"
CC(CC1CC(OC(=O)COc2ccccc2)=C(c2c(C)cc(-c3ccc(Cl)cc3)cc2C)C1=O)=NOCC(F)(F)F (mixture of isomers) [9-027],,,,,,,,,,,4 (Herbicidal ratio of 70% or higher and lower than 90%),4 (Herbicidal ratio of 70% or higher and lower than 90%),5 (Herbicidal ratio of 90% or more (almost completely withered)),3 (Herbicidal ratio of 40% or higher and lower than 70%),3 (Herbicidal ratio of 40% or higher and lower than 70%),2 (Herbicidal ratio of 20% or higher and lower than 40%),5 (Herbicidal ratio of 90% or more (almost completely withered)),2 (Herbicidal ratio of 20% or higher and lower than 40%),2 (Herbicidal ratio of 20% or higher and lower than 40%),5 (Herbicidal ratio of 90% or more (almost completely withered)),"Herbicidal effect grade, I: Avena fatua [5, 18]: 4 (Herbicidal ratio of 70% or higher and lower than 90%); Herbicidal effect grade, H: Echinochloa crus-galli var. crus-galli [6, 18]: 5 (Herbicidal ratio of 90% or more (almost completely withered)); Herbicidal effect grade, O: Chenopodium album [10, 18]: 3 (Herbicidal ratio of 40% or higher and lower than 70%); Effect on crop grade, g: rapeseed [11, 18]: 1 (Herbicidal ratio of 5% or higher and lower than 20%); Herbicidal effect grade, K: Lolium multiflorum Lam. [12, 18]: 5 (Herbicidal ratio of 90% or more (almost completely withered)); Effect on crop grade, b: directly sowed rice plant [13, 18]: 5 (Herbicidal ratio of 90% or more (almost completely withered)); Herbicidal effect grade, F: Digitaria ciliaris [15, 18]: 5 (Herbicidal ratio of 90% or more (almost completely withered))"
